In PubChem BioAssay (NCI):
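Step 1: Grow cells in 96-well plates. Step 2: Expose to compound for 48 hours at 5 concentrations. Step 3: Interpolate endpoints linearly; if unreached, use highest concentration. Here, GI50 denotes the concentration required for 50% inhibition of growth. At the TGI there is no net growth.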

Key:
Assay in all cases: NCI tumour cell line growth inhibition, 48 h
[1] = test system: SW-620 colon
[2] = test system: HL-60(TB) leukemia
[3] = test system: NCI-H460 lung
[4] = test system: TK-10 renal
[5] = test system: OVCAR-5 ovarian
[6] = test system: U251 CNS
[7] = test system: SF-295 CNS
[8] = test system: HCT-116 colon
[9] = test system: SF-539 CNS
[10] = test system: HCC-2998 colon

## COc1cc(/C=C/C(=O)C(=Cc2ccc(F)c(F)c2)C(=O)/C=C/c2ccc(O)c(OC)c2)ccc1O
[1]
  GI50: 1.84 µM
  TGI: 3.62 µM
[2]
  GI50: 2.67 µM
  TGI: 6.85 µM
[3]
  GI50: 2.68 µM
  TGI: 6.96 µM
[4]
  GI50: 2.67 µM
  TGI: 8.37 µM
[5]
  GI50: 3.25 µM
  TGI: 14.3 µM
[6]
  GI50: 1.7 µM
  TGI: 3.51 µM
[7]
  GI50: 3.63 µM
  TGI: 25.1 µM
[8]
  GI50: 1.79 µM
  TGI: 4.01 µM
[9]
  GI50: 3.26 µM
  TGI: 13.6 µM
[10]
  GI50: 1.98 µM
  TGI: 3.79 µM

## CN(C)CC(C(=O)c1ccccc1)c1ccccc1 (centres undefined)
[1]
  GI50: 0.396 µM
  TGI: 1.57 µM
[2]
  GI50: 3.17 µM
  TGI: 8.22 µM
[3]
  GI50: 3.93 µM
  TGI: 16 µM
[4]
  GI50: 1.3 µM
  TGI: 2.67 µM
[5]
  GI50: 5.93 µM
  TGI: 16.8 µM
[6]
  GI50: 1.56 µM
  TGI: 3.13 µM
[7]
  GI50: 4.52 µM
  TGI: 18.2 µM
[8]
  GI50: 1.03 µM
  TGI: 2.2 µM
[9]
  GI50: 2.25 µM
  TGI: 5.04 µM
[10]
  GI50: 4.86 µM
  TGI: 16.4 µM

## C=C1C(=O)OC2CCCCC3OC3C12 (centres undefined)
[1]
  TGI: 13.3 µM
[2]
  TGI: 9.72 µM
[3]
  TGI: 28.3 µM
[4]
  TGI: 26.7 µM
[5]
  TGI: 32.3 µM
[6]
  TGI: 23 µM
[7]
  TGI: 48.6 µM
[8]
  TGI: 13 µM
[9]
  TGI: 28.1 µM
[10]
  TGI: 23.9 µM

## Cc1cc2c3ccccc3n(C)c2c2c1C(=O)c1ccccc1C2=O
[1]
  TGI: > 100 µM
[2]
  TGI: 27.7 µM
[4]
  TGI: 81.3 µM
[7]
  TGI: 41.2 µM
[8]
  TGI: 32.4 µM
[9]
  TGI: > 100 µM
[10]
  TGI: 43.6 µM

## Cc1ccc(/C=C(\C#N)n2nnc3cc(Cl)c(Cl)cc32)cc1
[2]
  GI50: 1.78 µM
  TGI: 6.94 µM
[3]
  GI50: 2.43 µM
  TGI: 6.52 µM
[4]
  GI50: 4.4 µM
  TGI: 36.4 µM
[5]
  GI50: 3.25 µM
  TGI: 9.43 µM
[8]
  GI50: 1.54 µM
  TGI: 3 µM
[9]
  GI50: 2.53 µM
  TGI: 6.6 µM
[10]
  GI50: 1.9 µM
  TGI: 4.12 µM

## O=C1C=C2S[C@H]3C[C@]2(C=C1Br)c1c(c(O)c2c4c1=NCCC=4C=N2)N3
[1]
  TGI: 0.237 µM
[3]
  TGI: 11.6 µM
[4]
  TGI: 2.71 µM
[5]
  TGI: 3.25 µM
[6]
  TGI: 3.17 µM
[7]
  TGI: 2.83 µM
[8]
  TGI: 0.342 µM
[9]
  TGI: 3.03 µM
[10]
  TGI: 4.98 µM

## CN(C)c1cccc(-c2cc(=O)c3ccccc3[nH]2)c1
[1]
  TGI: > 100 µM
[2]
  TGI: 74.6 µM
[3]
  TGI: > 100 µM
[4]
  TGI: > 100 µM
[6]
  TGI: > 100 µM
[7]
  GI50: 28 µM
  TGI: > 100 µM
[8]
  GI50: 58.6 µM
  TGI: > 100 µM
[9]
  TGI: > 100 µM
[10]
  TGI: > 100 µM

## CCCc1cc(=O)oc2c(C(=O)CC(C)C)c(O)c(CC=C(C)C)c(O)c12
[1]
  GI50: 14.9 µM
  TGI: > 50 µM
[2]
  GI50: 7.01 µM
  TGI: 22.9 µM
[3]
  GI50: 8.03 µM
  TGI: > 50 µM
[4]
  GI50: 12.2 µM
  TGI: > 50 µM
[6]
  GI50: 9.19 µM
  TGI: > 50 µM
[7]
  GI50: 7.81 µM
  TGI: 31.3 µM
[8]
  GI50: 8.59 µM
  TGI: > 50 µM
[9]
  GI50: 9.8 µM
  TGI: 44.2 µM
[10]
  GI50: 4.87 µM
  TGI: > 50 µM

## O=C1CCCCC/C=C2/CC[C@H](Sc3ccccc3)[C@@H]12
[1]
  TGI: > 100 µM
[2]
  TGI: > 100 µM
[3]
  TGI: > 100 µM
[4]
  TGI: > 100 µM
[6]
  TGI: > 100 µM
[7]
  TGI: > 100 µM
[8]
  TGI: > 100 µM

## NC(=S)N/N=C(/CC(=O)c1ccc([N+](=O)[O-])cc1)C(=O)Nc1ncc([N+](=O)[O-])s1
[1]
  TGI: > 100 µM
[2]
  TGI: > 100 µM
[3]
  TGI: > 100 µM
[4]
  TGI: > 100 µM
[5]
  TGI: > 100 µM
[6]
  TGI: > 100 µM
[7]
  TGI: > 100 µM
[8]
  TGI: > 100 µM
[10]
  TGI: > 100 µM

## COc1cccc(Nc2nc(NNC(=O)Cc3ccccc3)nc(NNC(=O)c3ccncc3)n2)c1
[1]
  TGI: > 100 µM
[2]
  TGI: > 100 µM
[3]
  GI50: > 100 µM
  TGI: > 100 µM
[4]
  GI50: > 100 µM
  TGI: > 100 µM
[5]
  TGI: > 100 µM
[6]
  GI50: > 100 µM
  TGI: > 100 µM
[7]
  TGI: > 100 µM
[8]
  TGI: > 100 µM
[9]
  GI50: > 100 µM
  TGI: > 100 µM

## N=C(N)n1ncc(Cl)c(Cl)c1=O
[1]
  TGI: 3.75 µM
[3]
  TGI: 31.4 µM
[4]
  TGI: 35.3 µM
[5]
  TGI: 30.7 µM
[6]
  TGI: 20 µM
[7]
  TGI: 22.6 µM
[8]
  TGI: 3.32 µM
[9]
  TGI: 5.42 µM

## CC(=O)OC1(C#N)CC2OC1C1C2N1C(=O)c1ccccc1 (centres undefined)
[1]
  TGI: > 100 µM
[2]
  TGI: > 100 µM
[3]
  TGI: > 100 µM
[4]
  TGI: > 100 µM
[5]
  TGI: > 100 µM
[6]
  TGI: > 100 µM
[8]
  TGI: > 100 µM
[9]
  TGI: > 100 µM
[10]
  TGI: > 100 µM

## CCOC(=O)CC(=O)ON(C)C(=O)Cc1ccccc1
[1]
  TGI: > 100 µM
[2]
  TGI: > 100 µM
[3]
  TGI: > 100 µM
[5]
  TGI: > 100 µM
[6]
  TGI: > 100 µM
[7]
  TGI: > 100 µM
[8]
  TGI: > 100 µM
[9]
  TGI: > 100 µM

## O=C(NCCCN1CCN(CCCNC(=O)c2cnc3ccccc3n2)CC1)c1cnc2ccccc2n1
[1]
  TGI: > 100 µM
[2]
  TGI: > 100 µM
[3]
  TGI: > 100 µM
[6]
  TGI: > 100 µM
[7]
  TGI: > 100 µM
[8]
  TGI: > 100 µM
[9]
  TGI: > 100 µM
[10]
  TGI: > 100 µM

## Fc1ccc(-c2nc(-c3nc4ccc(Cl)cc4[nH]3)cc3c2[nH]c2ccccc23)cc1
[1]
  GI50: 4 µM
  TGI: 19.2 µM
[2]
  GI50: 4.32 µM
  TGI: 17.8 µM
[3]
  GI50: 2.97 µM
  TGI: 10.5 µM
[4]
  GI50: 3.35 µM
  TGI: 9.86 µM
[5]
  GI50: 6.13 µM
  TGI: 22.1 µM
[6]
  GI50: 3.31 µM
  TGI: 18 µM
[8]
  GI50: 3.29 µM
  TGI: 12.5 µM
[9]
  GI50: 3.55 µM
  TGI: 13.8 µM
[10]
  GI50: 5.56 µM
  TGI: 20.2 µM

## C/C(=N\NC(=O)CC(=O)Nc1ccc(C)cc1)c1cc2ccccc2oc1=O
[1]
  TGI: > 100 µM
[2]
  TGI: > 100 µM
[3]
  TGI: > 100 µM
[4]
  TGI: > 100 µM
[6]
  TGI: > 100 µM
[7]
  TGI: > 100 µM
[8]
  TGI: > 100 µM
[9]
  TGI: > 100 µM

## CC(C)c1cc(C(C)C)c(S(=O)(=O)NN)c(C(C)C)c1
[1]
  TGI: > 100 µM
[3]
  TGI: > 100 µM
[4]
  TGI: > 100 µM
[5]
  TGI: > 100 µM
[6]
  TGI: > 100 µM
[7]
  TGI: > 100 µM
[8]
  TGI: > 100 µM
[9]
  TGI: > 100 µM

## COc1ccc(/C=C/c2cc(OC)c(O[Si](C)(C)C(C)(C)C)c(OC)c2)cc1
[1]
  TGI: > 100 µM
[3]
  TGI: > 100 µM
[5]
  TGI: > 100 µM
[6]
  TGI: > 100 µM
[8]
  TGI: > 100 µM
[9]
  TGI: > 100 µM
[10]
  TGI: > 100 µM

## NC(=O)c1ccccc1NC(=O)C(=O)C(C(=O)c1ccc2ccccc2c1)C1OC(=O)c2ccccc21 (centres undefined)
[1]
  TGI: 27.9 µM
[3]
  TGI: > 100 µM
[4]
  TGI: 48.9 µM
[5]
  TGI: 67.1 µM
[6]
  TGI: 25.2 µM
[8]
  TGI: 23 µM
[10]
  TGI: 20.1 µM
